Data taken from ChEMBL document CHEMBL1649250, “Susceptibility of urinary tract bacteria to fosfomycin” (2009).
Active and inactive are the calls of the source. The calls are words filed in the database; no cut-off is given here.

Assays:
[1] = system: Staphylococcus epidermidis; assay: Antimicrobial activity against Staphylococcus epidermidis obtained from urine sample of patient assessed as percent susceptible isolates by disk diffusion method; format: functional, organism-based
[2] = system: Escherichia coli; assay: Antimicrobial activity against Escherichia coli obtained from urine sample of patient assessed as percent susceptible isolates by disk diffusion method; format: functional
[3] = system: Klebsiella pneumoniae; assay: Antimicrobial activity against carbapenemase-nonsusceptible Klebsiella pneumoniae assessed as percent susceptible isolates by disk diffusion method; format: functional
[4] = system: Streptococcus agalactiae; assay: Antimicrobial activity against Streptococcus agalactiae obtained from urine sample of patient assessed as percent susceptible isolates by disk diffusion method; format: functional
[5] = system: Klebsiella pneumoniae; assay: Antimicrobial activity against Klebsiella pneumoniae obtained from urine sample of patient assessed as percent susceptible isolates by disk diffusion method; format: functional
[6] = system: Pseudomonas aeruginosa; assay: Antimicrobial activity against carbapenemase-nonsusceptible Pseudomonas aeruginosa assessed as percent susceptible isolates by disk diffusion method; format: functional
[7] = system: Staphylococcus aureus; assay: Antimicrobial activity against Staphylococcus aureus obtained from urine sample of patient assessed as percent susceptible isolates by disk diffusion method; format: functional
[8] = system: Pseudomonas aeruginosa; assay: Antimicrobial activity against Pseudomonas aeruginosa obtained from urine sample of patient assessed as percent susceptible isolates by disk diffusion method; format: functional
[9] = system: Staphylococcus saprophyticus; assay: Antimicrobial activity against Staphylococcus saprophyticus obtained from urine sample of patient assessed as percent susceptible isolates by disk diffusion method; format: functional
[10] = system: Salmonella sp.; assay: Antimicrobial activity against Salmonella sp. obtained from urine sample of patient assessed as percent susceptible isolates by disk diffusion method; format: functional
[11] = system: Klebsiella pneumoniae; assay: Antimicrobial activity against colistin-nonsusceptible Klebsiella pneumoniae assessed as percent susceptible isolates by disk diffusion method; format: functional
[12] = system: Stenotrophomonas maltophilia; assay: Antimicrobial activity against Stenotrophomonas maltophilia obtained from urine sample of patient assessed as percent susceptible isolates by disk diffusion method; format: functional
[13] = system: Enterobacter sp.; assay: Antimicrobial activity against Enterobacter sp. obtained from urine sample of patient assessed as percent susceptible isolates by disk diffusion method; format: functional
[14] = system: Escherichia coli; assay: Antimicrobial activity against […] producing Escherichia coli assessed as percent susceptible isolates by disk diffusion method; format: functional
[15] = system: Pseudomonas aeruginosa; assay: Antimicrobial activity against cefotaxime-, ceftriaxone-, cefepime-, ceftazidime-, and aztreonam-nonsusceptible Pseudomonas aeruginosa assessed as percent susceptible isolates by disk diffusion method; format: functional
[16] = system: Proteus mirabilis; assay: Antimicrobial activity against Proteus mirabilis obtained from urine sample of patient assessed as percent susceptible isolates by disk diffusion method; format: functional
[17] = system: Enterobacter sp.; assay: Antimicrobial activity against cefotaxime-, ceftriaxone-, cefepime-, ceftazidime-, and aztreonam-nonsusceptible Enterobacter sp. assessed as percent susceptible isolates by disk diffusion method; format: functional
[18] = system: Enterococcus faecalis; assay: Antimicrobial activity against Enterococcus faecalis obtained from urine sample of patient assessed as percent susceptible isolates by disk diffusion method; format: functional
[19] = system: Klebsiella pneumoniae; assay: Antimicrobial activity against […] producing Klebsiella pneumoniae assessed as percent susceptible isolates by disk diffusion method; format: functional
[20] = system: Enterococcus faecium; assay: Antimicrobial activity against Enterococcus faecium obtained from urine sample of patient assessed as percent susceptible isolates by disk diffusion method; format: functional
[21] = system: Serratia marcescens; assay: Antimicrobial activity against Serratia marcescens obtained from urine sample of patient assessed as percent susceptible isolates by disk diffusion method; format: functional
[22] = system: Acinetobacter baumannii; assay: Antimicrobial activity against Acinetobacter baumannii obtained from urine sample of patient assessed as percent susceptible isolates by disk diffusion method; format: functional
[23] = system: Klebsiella oxytoca; assay: Antimicrobial activity against […] producing Klebsiella oxytoca assessed as percent susceptible isolates by disk diffusion method; format: functional
[24] = system: Klebsiella pneumoniae; assay: Antimicrobial activity against cefotaxime-, ceftriaxone-, cefepime-, ceftazidime-, and aztreonam-nonsusceptible Klebsiella pneumoniae assessed as percent susceptible isolates by disk diffusion method; format: functional
[25] = system: Klebsiella pneumoniae; assay: Antimicrobial activity against carbapenemase producing Klebsiella pneumoniae assessed as percent susceptible isolates by disk diffusion method; format: functional
[26] = system: Escherichia coli; assay: Antimicrobial activity against cefotaxime-, ceftriaxone-, cefepime-, ceftazidime-, and aztreonam-nonsusceptible Escherichia coli assessed as percent susceptible isolates by disk diffusion method; format: functional

## C[C@@H]1O[C@@H]1P(=O)(O)O [FOSFOMYCIN]
[1]
  Activity: Active
[2]
  Activity: 100%
[3]
  Activity: 60%
[4]
  Activity: 50%
[5]
  Activity: 82.3%
[6]
  Activity: 88.8%
[7]
  Activity: 100%
[8]
  Activity: 85%
[9]
  Activity: 100%
[10]
  Activity: 66.6%
[11]
  Activity: 58.3%
[12]
  Activity: 66.6%
[13]
  Activity: 75%
[14]
  Activity: 100%
[15]
  Activity: 17%
[16]
  Activity: 96.7%
[17]
  Activity: 100%
[18]
  Activity: 91.8%
[19]
  Activity: 100%
[20]
  Activity: 0%
[21]
  Activity: 66.6%
[22]
  Activity: 9%
[23]
  Activity: 0%
[24]
  Activity: 75%
[25]
  Activity: 60%
[26]
  Activity: 100%
